Source: US20160120861A1, “Compositions and Methods for Treating an Arrhythmia with an Opioid Antagonist” (PURDUE PHARMA L.P., priority 2013, published 2016)

Experiment: QT study following E14 principles: ECG effects (QTcI) of BTDS alone, BTDS with naltrexone, naltrexone and moxifloxacin relative to placebo
Conditions: for Mean change from baseline (QTcI): 24-hr ECG at steady state
Experimental: A QT study following E14 principles regarding design, conduct, analysis, and interpretation was conducted with the following objectives
Primary: • To evaluate the ECG effects of 10, 40, and 80 mcg/hr buprenorphine delivered by a Buprenorphine Transdermal System (BTDS) alone, or by BTDS dosed with naltrexone tablets, relative to placebo in healthy male and female subjects
To evaluate the ECG effects of moxifloxacin relative to placebo (assay sensitivity)
To evaluate the ECG effects of BTDS+Naltrexone (NTX) vs. BTDS alone
To evaluate the ECG effects of naltrexone alone vs. placebo
The study was a randomized, double-blind, placebo and positive controlled, parallel group study with the following parameters:
• Healthy male or female subjects aged 18 to 55 years, inclusive • Heart rate between 45-85 bpm • No clinically significant medical history or disease • Subjects with personal or family history of prolonged QT interval or abnormal cardiovascular condition excluded
60 subjects/treatment group
• 1) BTDS alone (Butrans® 5, 10, 20, 40, 80 mcg/hr) • 2) Moxifloxacin (400 mg single doses on Days 6, 13, 17) • 3) Placebo • 4) Naltrexone alone (NTX 50 mg q12 h days 4-17) • 5) BTDS+Naltrexone (BTDS 10, 20, 40, 80 mcg/hr with NTX 50 mg q12 h days 4-17)
BTDS or matching placebo patches were applied according to a dose-escalation and dose tapering scheme
24-hr ECG were collected at steady-state for each BTDS dose level at Days 6 (10 mcg/hr), 13 (40 mcg/hr) and 17 (80 mcg/hr).
Continuous 24-hr 12-lead digital Holter ECG collections were performed as follows: • Two 24-hour baseline recordings (Days −2 and −1) • Three 24-hour periods on-treatment for Days 6 (10 mcg/hr), 13 (40 mcg/hr) and 17 (80 mcg/hr).
ECGs were extracted at 13 time points (0, 0.5, 1, 1.5, 2, 2.5, 3, 4, 7, 10, 13, 18, 23.5 hours) over each 24-hour ECG recording period.
Subjects rested supine for at least 10 minutes prior to each nominal ECG extraction time and activity was limited for the prior 2 hours.
4 ECGs were extracted and quantified at each nominal time point by a blinded central ECG laboratory.
The primary QT correction for heart rate was QTcI. 104 baseline ECGs were used to determine subject-specific HR correction.
Placebo-corrected change from baseline QTcI means and 90% CIs were calculated using a mixed effects general linear model with covariates for time, treatment, time by treatment interaction, and sex.

Compound	>60 ms inc, N (%) (both, human, in vivo)	New >480 ms, N (%) (both, human, in vivo)	New >500 ms, N (%) (both, human, in vivo)	QTcI results (positive control, assay sensitivity) (in vivo)	>30-60 ms inc, N (%) (Day 6, QTcI, healthy subjects)	>60 ms inc, N (%) (Day 6, QTcI, healthy subjects)	New >480 ms, N (%) (Day 6, QTcI, healthy subjects)	New >500 ms, N (%) (Day 6, QTcI, healthy subjects)	Mean change from baseline (QTcI) (Day 6, healthy subjects)	>30-60 ms inc, N (%) (Day 13, QTcI, healthy subjects)	>60 ms inc, N (%) (Day 13, QTcI, healthy subjects)	New >480 ms, N (%) (Day 13, QTcI, healthy subjects)	New >500 ms, N (%) (Day 13, QTcI, healthy subjects)	Mean change from baseline (QTcI) (Day 13, healthy subjects)	>30-60 ms inc, N (%) (Day 17, QTcI, healthy subjects)	>60 ms inc, N (%) (Day 17, QTcI, healthy subjects)	New >480 ms, N (%) (Day 17, QTcI, healthy subjects)	New >500 ms, N (%) (Day 17, QTcI, healthy subjects)	Mean change from baseline (QTcI) (Day 17, healthy subjects)	Mean change in baseline of the QT interval as compared to buprenorphine alone (naltrexone administered with buprenorphine)
COc1c(N2C[C@@H]3CCCN[C@@H]3C2)c(F)cc2c(=O)c(C(=O)O)cn(C3CC3)c12 [Moxifloxacin]	0 N (%)	0 N (%)	0 N (%)	as expected																
O=C1CC[C@@]2(O)[C@H]3Cc4ccc(O)c5c4[C@@]2(CCN3CC2CC2)[C@H]1O5 [NTX, naltrexone]					0 N (%)	0 N (%)	0 N (%)	0 N (%)	1.5 ms	1 (2%) N (%)	0 N (%)	0 N (%)	0 N (%)	-1.7 ms	1 (2%) N (%)	0 N (%)	0 N (%)	0 N (%)	-0.9 ms	reduced
